Values quoted from earlier work in patent US20110021626A1, “ENCAPSULATION OF VITAMIN C INTO WATER SOLUBLE DENDRIMERS” (CENTRE NATIONAL DE LA RECHERCHE SCIENTIFIQUE - CNRS, priority 2008, published 2011).

Conditions: at 25° C. in water

For `O=C1O[C@H]([C@@H](O)CO)C(O)=C1O` [ascorbic acid], the pKa is given as 4,11.
